The nature of test [1]: Inhibition of bovine brain Vo domain of V-ATPase activity assessed as ATP-mediated proton translocation by spectrophotometric analysis. Set-up: species or system Bos taurus.
A further test has as its system UACC-62. The test can be described thus: Cytotoxicity against human UACC62 cells after 48 hrs by SRB assay. In kind it is functional, cell-based. The conditions noted are these: UACC-62, 48 h. A general note: The SRB assay estimates cell density from bound dye.
A short description of test [2]: Ratio of IC50 for bovine brain Vo domain of V-ATPase activity to IC50 for human UACC62 cells. Set-up: species or system UACC-62.
Test [3] in a line: Cytotoxicity against human NCI60 cells. In kind it is functional. The conditions noted are these: read-out: LC50 (the source's name).

The structures appear in SMILES notation. A value given as a limit tells only on which side of the number the result lay.

With `C=C(C)C/C(C)=C\C(=O)N/C=C/C(C)=C/[C@@H](C)[C@H]1C/C(C)=C/C=C/CC[C@H](OC(N)=O)[C@@H](O)/C=C/[C@@H](O)CCC/C=C/C(=O)O1` [PALMEROLIDE D], the IC50 (as a rule, the point on the concentration scale where inhibition reaches its midpoint) came to 0.025 µM in test [1] and 0.002 µM with UACC-62. The “Ratio IC50” value in test [2] turned out to be 12.5.

Take `C=C(C)CC(=O)N/C=C/C(C)=C/[C@@H](C)[C@H]1C/C(C)=C/C=C/CC[C@H](OC(N)=O)[C@@H](O)/C=C/[C@@H](O)CCC/C=C/C(=O)O1` [PALMEROLIDE F]: the 50% inhibitory concentration (IC50) in test [1] was 0.063 µM; with UACC-62, 0.758 µM. In addition, the “Ratio IC50” value in test [2] was 0.083.

Consider `C/C(C=O)=C\[C@@H](C)[C@H]1C/C(C)=C/C=C/CC[C@H](OC(N)=O)[C@@H](O)/C=C/[C@@H](O)CCC/C=C/C(=O)O1` [PALMEROLIDE E], for which the IC50 is above 10000 µM in test [1] and 5000 µM in the test with UACC-62. Moreover, the “Ratio IC50” value in test [2] is recorded as above 2.

For the compound `CC(C)=CC(=O)N/C=C/C(C)=C\[C@@H](C)[C@H]1C/C(C)=C/C=C/CC[C@H](OC(N)=O)[C@@H](O)/C=C/[C@@H](O)CCC/C=C/C(=O)O1` [PALMEROLIDE G], the results for the IC50 (in test [1]; in the test on UACC-62) were 0.007 µM and 1.21 µM, respectively. Further, the “Ratio IC50” value in test [2] was found to be 0.006.

As for `CC(C)=CC(=O)N/C=C/C(C)=C/[C@@H](C)[C@H]1C/C(C)=C/C=C/CC[C@H](OC(N)=O)[C@@H](O)/C=C/[C@@H](O)CCC/C=C/C(=O)O1` [PALMEROLIDE A], the IC50 in test [1] worked out at 0.002 µM; in the test with UACC-62, 0.024 µM. Further, the CC50 in test [3] is 18 nM. Further, the “Ratio IC50” value in test [2] turned out to be 0.083.

Source of the values: ChEMBL document CHEMBL1914347, “Palmerolide macrolides from the Antarctic tunicate Synoicum adareanum” (Bioorg Med Chem, 2011).
